Assay results from patent US12065445B2, “CDK2 inhibitors and methods of using the same” (Cedilla Therapeutics, Inc., priority 2021, dated 2024).

Experiments:
Kuramochi cells = assay: BrdU Cell Proliferation Assay; type: cell-based; details: read-out: BrdU - KURAMOCHI.1: IC50
In short: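 Signal is 450 nm absorbance from a peroxidase anti-BrdU ELISA after a 1-hour BrdU label, background-subtracted and normalized to DMSO-treated wells. Kuramochi cells (2,000 per well) had been exposed to compound for 4 days. Dosing used a 10-point dose response in 3-fold steps.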

CDK2/Cyclin E1 = target: T1, CDK2/Cyclin E1 (Homo sapiens, UniProt P24941); assay: CDK2/Cyclin E1 Caliper Assay (LabChip EZ Reader mobility shift); type: biochemical; details: read-out: Caliper Assay (CDK2/CCNE1): IC50
T1 construct: purchased Eurofins 14-475
Procedure: Inhibition of CDK2/Cyclin E1 activity in the presence of compounds of the present disclosure was evaluated using a Caliper LabChip® EZ Reader mobility shift assay. In the assay, CDK2/Cyclin E1 (Eurofins, 14-475) catalyzed the phosphorylation of a fluorescently tagged peptide 5-FAM-QSPKKG-CONH2 (PerkinElmer, FL Peptide 18) which induced a difference in capillary electrophoresis mobility. The peptide substrate and product were measured, and the conversion ratio was used to determine the inhibition (as % activity and IC50 values) of CDK2/Cyclin E1. Reactions contained 50 mM HEPES pH 7.5, 10 mM MgCl2, 1 mM EDTA, 2 mM DTT, 0.01% Brij35, 0.5 mg/mL BSA, 0.1% DMSO, 2.5 nM CDK2/Cyclin E1, 100 μM ATP, and 1.5 μM fluorescent peptide substrate.
Dose titrations of inhibitors in 100% DMSO were combined with 3.25 nM CDK2/Cyclin E1 and 130 μM of ATP in reaction buffer. The mixtures were incubated for 30 minutes before the addition of fluorescent peptide substrate to initiate the kinase reaction. The final conditions were 2.5 nM CDK2/Cyclin E1, 100 μM ATP, and 1.5 μM fluorescent peptide. The reactions were stopped after 100 minutes with the addition of EDTA (400 mM final EDTA concentration). The stopped reactions were analyzed on a Caliper LabChip® EZ Reader II. The conversion ratios were normalized to yield % activity, plotted against compound concentration, and fit to a four-parameter equation to determine the IC50 for each compound.

[1] = test system: Kuramochi cells labeled with mApple-H2B; assay: IncuCyte Cell Proliferation Assay; type: cell-based
In short: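 GI50 came from dose-response fits of cell-count fold change between 0 and 72 h, normalized to DMSO controls. Counts were fluorescent nuclei from live-cell images over a 10-point, ½ log series starting at 20 μM.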

Structure (SMILES)	IC50 (Kuramochi cells) [µM]	IC50 (CDK2/Cyclin E1) [µM]	IC50 ([1]; 72 hours) [µM]	IC50 ([1]; 72 h) [µM]
C[C@@H](OCC1CCC(F)(F)CC1)[C@H](NC(=O)C1CN(C(=O)c2cnn(Cc3ccc(F)cc3)c2)CC12CN(C(=O)C1(C(F)(F)F)CC1)C2)C(=O)N1CCC(F)(F)CC1 (single isomer, unassigned) [I-190B]	0.5 to 5	0.1 to 1	5 to 20	–
C[C@@H](OCc1ccccc1)[C@H](NC(=O)C1CN(C(=O)c2cnn(Cc3ccccc3)c2)CC12CN(C(=O)C1CC1(C)C)C2)C(=O)NCCCCCNC(=O)OC(C)(C)C (stereo partly drawn) [I-52]	0.5 to 5	0.01 to 0.1	–	0.5 to 5
COCC1CCCN(C(=O)[C@@H](NC(=O)[C@H]2CN(C(=O)c3cnn(Cc4ccccc4)c3)CC23CN(C(=O)[C@H]2CC2(C)C)C3)[C@@H](C)OCC2CCCCC2)C1 (stereo partly drawn) [I-111]	≤ 0.5	0.01 to 0.1	–	0.5 to 5
C[C@@H]1C[C@H](C)CN(C(=O)[C@@H](NC(=O)[C@@H]2CN(C(=O)c3cn[nH]c3)CC23CN(C(=O)[C@H]2CC2(C)C)C3)[C@@H](C)OCC2CCCCC2)C1 [I-173A]	≤ 0.5	≤ 0.01	–	0.5 to 5
C[C@@H](OCC1CCCCC1)[C@H](NC(=O)[C@@H]1CN(C(=O)c2cncs2)CC12CN(C(=O)[C@H]1CC1(C)C)C2)C(=O)N1CCC(F)(F)CC1 [I-192A]	≤ 0.5	≤ 0.01	–	≤ 0.5
CC(=O)N[C@H]1CCCN(C(=O)[C@@H](NC(=O)[C@@H]2CN(C(=O)c3cncs3)CC23CN(C(=O)[C@H]2CC2(C)C)C3)[C@@H](C)OCC2CCCCC2)C1 [I-330]	5 to 10	≤ 0.01	–	0.5 to 5
Cc1ccc(CNC(=O)[C@@H]2CN(C(=O)c3cnn(Cc4ccccc4F)c3)CC23CN(C(=O)[C@H]2CC2(C)C)C3)nn1 [I-407]	–	> 10	–	> 20
CNC(=O)[C@@H](NC(=O)[C@@H]1CN(C(=O)c2cncs2)CC12CN(C(=O)[C@H]1CC1(C)C)C2)c1nnc(C2CCCCC2)o1 [I-429]	> 10	1 to 10	–	> 20
C[C@@H](OCC1CCOCC1)[C@@H](COC(F)F)NC(=O)[C@@H]1CN(C(=O)c2cncs2)CC12CN(C(=O)[C@H]1CC1(C)C)C2 [I-441]	–	0.1 to 1	–	> 20
C[C@@H](OCC1CCOCC1)[C@H](NC(=O)[C@@H]1CN(C(=O)c2cncs2)CC12CN(C(=O)[C@H]1CC1(C)C)C2)C(=O)N1CCC(c2ccncc2)CC1 [I-442]	–	≤ 0.01	–	5 to 20
C[C@@H](OCC1CCC(F)(F)CC1)[C@H](NC(=O)[C@@H]1CN(C(=O)c2cncs2)CC12CN(C(=O)[C@H]1CC1(C)C)C2)C(=O)N1CC2CCC(C1)O2 [I-469]	0.5 to 5	≤ 0.01	–	≤ 0.5
